Target: T1, PPARγ (Homo sapiens, UniProt P37231)
T1 construct: gene PPARG
T1 sequence (P37231 231-505 limits assumed): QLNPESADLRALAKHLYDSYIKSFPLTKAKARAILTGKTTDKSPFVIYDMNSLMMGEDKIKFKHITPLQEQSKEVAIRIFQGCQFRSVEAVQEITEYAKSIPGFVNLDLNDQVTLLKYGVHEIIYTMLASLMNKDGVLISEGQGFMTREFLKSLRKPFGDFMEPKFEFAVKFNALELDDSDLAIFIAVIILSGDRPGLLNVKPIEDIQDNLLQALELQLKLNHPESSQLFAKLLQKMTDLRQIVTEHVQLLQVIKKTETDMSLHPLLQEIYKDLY
Test: LanthaScreen TR-FRET competitive binding assay

`C=C(C)[C@@H]1Cc2c(ccc(-c3coc4cc(O)ccc4c3=O)c2O)O1` [compound 17, 7, 2′-Dihydroxy-2′′ S-isopropenyl dihydrofuran [6′′, 7′′ : 3′, 4′]-isoflavone] showed a Ki of 1.57 µM.

Reference: paper PMC5402262, “Synthesis and anti-obesity effects in vivo of Crotadihydrofuran C as a novel PPARγ antagonist from Crotalaria albida” (Scientific Reports, 2017)
